Results: publication PMC9587990, “Molecular basis for isoform-selective inhibition of presenilin-1 by MRK-560” (Nature Communications, 2022)
Several values for one entry are separate records, joined by “and”; a condition that tells them apart may be missing. Equal entries are not always repeated. Where two headings read alike, the source gives them in different places.

Assays:
[1] = biological target: T1, PS2 P287T γ-secretase complex (Homo sapiens, UniProt P49810, P287T); experiment: in vitro cleavage assay, Aβ40 production by AlphaLISA; type: biochemical; conditions: for remaining activity at 0.002 µM / remaining activity at 0.04 µM / remaining activity at 0.2 µM / remaining activity at 1 µM / remaining activity at 10 µM / remaining activity at 20 µM: 4 h
T1 construct: made in house
Protocol: (§1) In total we generated six variants, including single and double residue swapping of Thr281/Leu282 in PS1 with Pro287/Ile288 in PS2, respectively. MRK-560 response to the six PS1/PS2 mutant-containing complexes, each purified to homogeneity, was examined in the in vitro cleavage assay (Fig. 4). All proteins used for the activity assay were sub-cloned, expressed and purified as described. Protein concentration was determined using the Bradford method. […] The cleavage reaction was conducted at 37 °C for 4 h. The cleaved products of these substrates were detected using a monoclonal antibody (1:1000 dilution, CW0299, CWBio) against the C-terminal Myc tag. Aβ40 production was detected using the AlphaLISA assay (PerkinElmer) as described. The IC50 values and the inhibition curves were calculated using Prism 8.0. Statistical analysis of Aβ40 was performed using Prism 8 (GraphPad Software, San Diego, CA, USA). IC50 were determined by a four-parameter logistic regression. The statistical details can be found in Figs. 1, 4 and legends. Data are expressed as mean ± SD.

[2] = biological target: T2, PS1 T281P γ-secretase complex (Homo sapiens, UniProt P49768, T281P); experiment: as above; type: biochemical; conditions: for remaining activity at 0.002 µM / remaining activity at 0.01 µM / remaining activity at 0.04 µM / remaining activity at 0.2 µM / remaining activity at 1 µM / remaining activity at 10 µM: 4 h; for remaining activity at 0.002 µM / remaining activity at 0.01 µM / remaining activity at 0.04 µM / remaining activity at 0.2 µM / remaining activity at 1 µM / remaining activity at 10 µM / Caculated Aβ40 production / raw data from α-Lisa reading: PS1 T281P
T2 construct: made in house
Protocol: as §1

[3] = system: PS1-complex over PS2; conditions: cited from earlier work
[4] = MRK-560 2 nM, mean of 3 replicates, read-out: Normalized production (control=1), Mean
[5] = MRK-560 2 nM, replicates, read-out: Normalized production (control=1)
[6] = MRK-560 40 nM, mean of 3 replicates, read-out: Normalized production (control=1), Mean
[7] = MRK-560 40 nM, replicates, read-out: Normalized production (control=1)
[8] = MRK-560 200 nM, mean of 3 replicates, read-out: Normalized production (control=1), Mean
[9] = MRK-560 200 nM, replicates, read-out: Normalized production (control=1)
[10] = MRK-560 1 μM, mean of 3 replicates, read-out: Normalized production (control=1), Mean
[11] = MRK-560 1 μM, replicates, read-out: Normalized production (control=1)
[12] = MRK-560 10 μM, mean of 3 replicates, read-out: Normalized production (control=1), Mean
[13] = MRK-560 10 μM, replicates, read-out: Normalized production (control=1)

- remaining activity at 0.002 µM [1, 4]: 86.9%
- remaining activity at 0.002 µM [1, 5]: 87.8%
- remaining activity at 0.04 µM [1, 6]: 68.9%
- remaining activity at 0.04 µM [1, 7]: 70.8%
- remaining activity at 0.2 µM [1, 8]: 33.9%
- remaining activity at 0.2 µM [1, 9]: 34.2%
- remaining activity at 1 µM [1, 10]: 8.68%
- remaining activity at 1 µM [1, 11]: 8.69%
- remaining activity at 10 µM [1, 12]: 1.62%
- remaining activity at 10 µM [1, 13]: 1.63%
- remaining activity at 20 µM ([1]; MRK-560 20 μM, mean of 3 replicates, read-out: Normalized production (control=1), Mean): 1.25%
- remaining activity at 20 µM ([1]; MRK-560 20 μM, replicates, read-out: Normalized production (control=1)): 1.14%
- Caculated Aβ40 production ([1]; MRK-560 2 nM, replicates): 520.0011 and 533.1358 and 528.5350
- raw data from α-Lisa reading ([1]; MRK-560 2 nM, replicates): 78132 and 77549 and 76464
- Caculated Aβ40 production ([1]; MRK-560 40 nM, replicates): 419.8422 and 429.7041 and 404.1611
- raw data from α-Lisa reading ([1]; MRK-560 40 nM, replicates): 64687 and 61254 and 63367
- Caculated Aβ40 production ([1]; MRK-560 200 nM, replicates): 203.3520 and 207.5605 and 206.0857
- raw data from α-Lisa reading ([1]; MRK-560 200 nM, replicates): 33202 and 32980 and 32568
- Caculated Aβ40 production ([1]; MRK-560 1 μM, replicates): 52.1767 and 52.7609 and 53.0714
- raw data from α-Lisa reading ([1]; MRK-560 1 μM, replicates): 8864 and 8915 and 8768
- Caculated Aβ40 production ([1]; MRK-560 10 μM, replicates): 9.7739 and 9.8808 and 9.9223
- raw data from α-Lisa reading ([1]; MRK-560 10 μM, replicates): 1731 and 1738 and 1713
- Caculated Aβ40 production ([1]; MRK-560 20 μM, replicates): 7.8338 and 6.8972 and 8.0769
- raw data from α-Lisa reading ([1]; MRK-560 20 μM, replicates): 1228 and 1427 and 1386
- IC50 ([1]; mean ± SD): 0.106 ± 0.027 µM
- IC50 [2]: 0.055 ± 0.006 µM
- remaining activity at 0.002 µM [2, 4]: 99.3%
- remaining activity at 0.002 µM [2, 5]: 100%
- remaining activity at 0.01 µM ([2]; MRK-560 10 nM, mean of 3 replicates, read-out: Normalized production (control=1), Mean): 92.8%
- remaining activity at 0.01 µM ([2]; MRK-560 10 nM, replicates, read-out: Normalized production (control=1)): 94.3%
- remaining activity at 0.04 µM [2, 6]: 62.2%
- remaining activity at 0.04 µM [2, 7]: 65.5%
- remaining activity at 0.2 µM [2, 8]: 10.6%
- remaining activity at 0.2 µM [2, 9]: 11%
- remaining activity at 1 µM [2, 10]: 1.23%
- remaining activity at 1 µM [2, 11]: 1.29%
- remaining activity at 10 µM [2, 12]: 0.61%
- remaining activity at 10 µM [2, 13]: 0.59%
- Caculated Aβ40 production ([2]; MRK-560 2 nM, replicates): 345.9981 and 336.9974 and 315.8225
- raw data from α-Lisa reading ([2]; MRK-560 2 nM, replicates): 52003 and 49017 and 53262
- Caculated Aβ40 production ([2]; MRK-560 10 nM, replicates): 309.2203 and 316.1610 and 308.6161
- raw data from α-Lisa reading ([2]; MRK-560 10 nM, replicates): 49065 and 47993 and 48079
- Caculated Aβ40 production ([2]; MRK-560 40 nM, replicates): 209.7683 and 219.6031 and 196.3837
- raw data from α-Lisa reading ([2]; MRK-560 40 nM, replicates): 35008 and 31515 and 33534
- Caculated Aβ40 production ([2]; MRK-560 200 nM, replicates): 35.0895 and 36.8617 and 34.7461
- raw data from α-Lisa reading ([2]; MRK-560 200 nM, replicates): 6240 and 5889 and 5946
- Caculated Aβ40 production ([2]; MRK-560 1 μM, replicates): 4.0253 and 4.3330 and 4.0016
- raw data from α-Lisa reading ([2]; MRK-560 1 μM, replicates): 795 and 739 and 743
- Caculated Aβ40 production ([2]; MRK-560 10 μM, replicates): 2.0149 and 1.9676 and 2.1390
- raw data from α-Lisa reading ([2]; MRK-560 10 μM, replicates): 395 and 424 and 403
Compound: O=S(=O)(NC1CCC(c2cc(F)ccc2F)(S(=O)(=O)c2ccc(Cl)cc2)CC1)C(F)(F)F (stereo not drawn) [MRK-560, N-[cis-4-[(4-chlorophenyl)sulfonyl]-4-(2,5-difluorophenyl)cyclohexyl]-1,1,1-trifluoromethanesulfonamide]
- higher suppression of the PS1-complex over PS2 [3]: 37 folds
